MIC data for 26 molecules are collected here from ChEMBL document CHEMBL1151911, “A microwave-assisted facile regioselective Fischer indole synthesis and antitubercular evaluation of novel 2-aryl-3,4-dihydro-2H-thieno[3,2-b]indoles” (2009).

Converted amounts (≈) assume the structure as drawn.

The assay has as its system Mycobacterium tuberculosis. The experiment in a line: Antimycobacterial activity against Mycobacterium tuberculosis H37Rv. The assay is classed as functional.
Regarding `Fc1ccc2[nH]c3c(c2c1)SC(c1ccccc1)C3` (stereo unspecified), the MIC (usually the lowest concentration that inhibits growth of the organism) came to 6.25 µg/mL (≈ 23.2 µM).

As for `Clc1ccc2[nH]c3c(c2c1)SC(c1ccccc1)C3` (stereo unspecified), the lowest concentration to inhibit growth (MIC) was 12.5 µg/mL (≈ 43.7 µM).

As for `Fc1cccc(C2Cc3[nH]c4ccccc4c3S2)c1` (stereo unspecified), inhibition of growth (MIC) required 3.13 µg/mL (≈ 11.6 µM). Compared with the last molecule, the MIC is about 4-fold lower.

On to `Clc1ccc(C2Cc3[nH]c4ccc(Cl)cc4c3S2)cc1` (stereo unspecified), for which 12.5 µg/mL (≈ 39 µM) was the least that counted as inhibitory (MIC). This MIC is about 4-fold higher than that of the molecule before.

In turn, `Fc1ccc2[nH]c3c(c2c1)SC(c1ccc(Cl)cc1)C3` (stereo unspecified) registered an MIC of 1.56 µg/mL (≈ 5.14 µM). This MIC lies about 8-fold lower than the previous one.

Turning to `Cc1ccc(C2Cc3[nH]c4ccc(F)cc4c3S2)cc1` (stereo unspecified), it took 3.13 µg/mL (≈ 11 µM) to inhibit growth (MIC).

In the case of `c1ccc(C2Cc3[nH]c4ccccc4c3S2)cc1` (stereo unspecified), the MIC came out at 25 µg/mL (≈ 99.5 µM).

Consider `Clc1ccc2[nH]c3c(c2c1)SC(c1ccccc1Cl)C3` (stereo unspecified), for which the MIC came out at 3.13 µg/mL (≈ 9.77 µM).

As for `CC(C)c1ccc(C2Cc3[nH]c4ccc(Cl)cc4c3S2)cc1` (stereo unspecified), the MIC was 0.78 µg/mL (≈ 2.38 µM). Against the preceding molecule, the MIC is about 4-fold lower.

For `Fc1ccc2[nH]c3c(c2c1)SC(c1ccccc1Cl)C3` (stereo unspecified), 1.76 µg/mL (≈ 5.79 µM) was the least that counted as inhibitory (MIC). This MIC lies about 2.3-fold higher than the previous one.

For the molecule `CC(C)c1ccc(C2Cc3[nH]c4ccc(F)cc4c3S2)cc1` (stereo unspecified), inhibition of growth (MIC) required 0.78 µg/mL (≈ 2.5 µM).

On to `Clc1ccc(C2Cc3[nH]c4ccccc4c3S2)c(Cl)c1` (stereo unspecified), for which the MIC stood at 1.76 µg/mL (≈ 5.5 µM).

The molecule `Fc1ccc(C2Cc3[nH]c4ccc(Cl)cc4c3S2)cc1` (stereo unspecified) gave a minimum inhibitory concentration (MIC) of 3.13 µg/mL (≈ 10.3 µM).

For `Cc1ccc(C2Cc3[nH]c4ccccc4c3S2)cc1` (stereo unspecified), the MIC was 6.25 µg/mL (≈ 23.6 µM).

As for `Clc1ccccc1C1Cc2[nH]c3ccccc3c2S1` (stereo unspecified), the MIC was found to be 6.25 µg/mL (≈ 21.9 µM).

The molecule `Brc1ccccc1C1Cc2[nH]c3ccccc3c2S1` (stereo unspecified) registered an MIC of 3.13 µg/mL (≈ 9.48 µM).

Molecule `Clc1ccc(C2Cc3[nH]c4ccc(Cl)cc4c3S2)c(Cl)c1` (stereo unspecified) gave an MIC of 0.78 µg/mL (≈ 2.2 µM).

For the molecule `Cc1ccc(C2Cc3[nH]c4ccc(Cl)cc4c3S2)cc1` (stereo unspecified), the MIC was 6.25 µg/mL (≈ 20.8 µM).

`Clc1ccc(C2Cc3[nH]c4ccccc4c3S2)cc1` (stereo unspecified) had an MIC of 12.5 µg/mL (≈ 43.7 µM).

Molecule `O=[N+]([O-])c1cccc(C2Cc3[nH]c4ccccc4c3S2)c1` (stereo unspecified) returned a minimal inhibitory concentration (MIC) of 1.76 µg/mL (≈ 5.94 µM). Against the preceding molecule, the MIC is about 7.1-fold lower.

`CC(C)c1ccc(C2Cc3[nH]c4ccccc4c3S2)cc1` (stereo unspecified) displayed a minimum inhibitory concentration (MIC) of 0.78 µg/mL (≈ 2.66 µM).

Regarding `Fc1ccc2[nH]c3c(c2c1)SC(c1ccc(Cl)cc1Cl)C3` (stereo unspecified), the minimal inhibitory concentration (MIC) is 0.4 µg/mL (≈ 1.18 µM). This MIC lies about 1.9-fold lower than the previous one.

As to `CC[C@@H](CO)NCCN[C@@H](CC)CO` [ETHAMBUTOL], the MIC was found to be 1.56 µg/mL (≈ 7.64 µM).

`NNC(=O)c1ccncc1` [ISONIAZID] gave an MIC of 0.05 µg/mL (≈ 0.365 µM).

The molecule `NC(=O)c1cnccn1` [PYRAZINAMIDE] came in with an MIC of 6.25 µg/mL (≈ 50.8 µM).

`CO[C@H]1/C=C/O[C@@]2(C)Oc3c(C)c(O)c4c(O)c(c(/C=N/N5CCN(C)CC5)c(O)c4c3C2=O)NC(=O)/C(C)=C\C=C\[C@H](C)[C@H](O)[C@@H](C)[C@@H](O)[C@@H](C)[C@H](OC(C)=O)[C@@H]1C` [RIFAMPIN] registered an MIC of 0.1 µg/mL (≈ 0.122 µM).
